Data reported in ChEMBL document CHEMBL5620354, “Development of isoselenazolium chlorides as selective pyruvate kinase isoform M2 inhibitors” (Eur J Med Chem, 2023).
pIC50: −log10 of the molar value.

Assays:
A549 = experiment: cells; conditions: Homo sapiens, A549, 48 h
Description: Cytotoxicity against human A549 cells assessed as inhibition of cell growth incubated for 48 hrs by MTT assay

Jurkat = experiment: Cytotoxicity against human Jurkat cells assessed as inhibition of cell growth incubated for 48 hrs by MTT assay; format: functional, cell-based
[1] = Cytotoxicity against rat H9c2 cells assessed as inhibition of cell growth incubated for 48 hrs by MTT assay; format: toxicity, cell-based
Oryctolagus cuniculus = species on record: Oryctolagus cuniculus; experiment: Inhibition of rabbit LDH at 1 uM relative to control
HCC1937 = experiment: Cytotoxicity against human HCC1937 cells assessed as inhibition of cell growth incubated for 48 hrs by MTT assay; format: functional, cell-based; conditions: HCC1937, 48 h
Pyruvate kinase PKM [2] = molecular target: T1, Pyruvate kinase PKM (Homo sapiens, UniProt P14618); experiment: Inhibition of N-terminal his8-tagged PKM2 (unknown origin) in presence of FBP by Michaelis-menten analysis
Target sequence in this assay (P14618 whole entry): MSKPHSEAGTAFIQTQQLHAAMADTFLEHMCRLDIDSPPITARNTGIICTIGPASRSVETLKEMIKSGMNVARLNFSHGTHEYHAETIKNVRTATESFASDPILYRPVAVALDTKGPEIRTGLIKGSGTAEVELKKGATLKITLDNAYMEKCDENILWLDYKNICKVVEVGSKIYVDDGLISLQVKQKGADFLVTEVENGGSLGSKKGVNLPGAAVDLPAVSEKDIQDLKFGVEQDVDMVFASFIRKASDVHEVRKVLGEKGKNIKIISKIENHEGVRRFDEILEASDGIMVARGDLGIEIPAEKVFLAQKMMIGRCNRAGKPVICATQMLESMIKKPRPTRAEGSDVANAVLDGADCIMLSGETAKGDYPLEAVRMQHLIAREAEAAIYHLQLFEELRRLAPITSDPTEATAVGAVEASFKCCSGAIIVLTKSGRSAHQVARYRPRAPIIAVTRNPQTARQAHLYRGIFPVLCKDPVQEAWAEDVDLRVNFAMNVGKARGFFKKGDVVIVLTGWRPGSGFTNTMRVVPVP

4T1 = experiment: Cytotoxicity against mouse 4T1 cells assessed as inhibition of cell growth incubated for 48 hrs by MTT assay; format: functional, cell-based; conditions: 4T1, 48 h
Pyruvate kinase PKM [3] = molecular target: T1, Pyruvate kinase PKM; experiment: Inhibition of N-terminal his8-tagged PKM2 (unknown origin)
Target sequence in this assay (P14618 whole entry): as above

MDA-MB-231 = experiment: Cytotoxicity against human MDA-MB-231 cells assessed as inhibition of cell growth incubated for 48 hrs by MTT assay; format: functional, cell-based; conditions: MDA-MB-231, 48 h
[4] = molecular target: Pyruvate kinase PKLR (Homo sapiens) (UniProt P30613); experiment: Inhibition of PKR (unknown origin) at 1 uM relative to control
Pyruvate kinase PKM [5] = molecular target: T1, Pyruvate kinase PKM; experiment: Inhibition of PKM1 (unknown origin); parameters: concentration or dose not given beside the values; conditions: concentration not given here
Target sequence in this assay (P14618 2-531 limits assumed): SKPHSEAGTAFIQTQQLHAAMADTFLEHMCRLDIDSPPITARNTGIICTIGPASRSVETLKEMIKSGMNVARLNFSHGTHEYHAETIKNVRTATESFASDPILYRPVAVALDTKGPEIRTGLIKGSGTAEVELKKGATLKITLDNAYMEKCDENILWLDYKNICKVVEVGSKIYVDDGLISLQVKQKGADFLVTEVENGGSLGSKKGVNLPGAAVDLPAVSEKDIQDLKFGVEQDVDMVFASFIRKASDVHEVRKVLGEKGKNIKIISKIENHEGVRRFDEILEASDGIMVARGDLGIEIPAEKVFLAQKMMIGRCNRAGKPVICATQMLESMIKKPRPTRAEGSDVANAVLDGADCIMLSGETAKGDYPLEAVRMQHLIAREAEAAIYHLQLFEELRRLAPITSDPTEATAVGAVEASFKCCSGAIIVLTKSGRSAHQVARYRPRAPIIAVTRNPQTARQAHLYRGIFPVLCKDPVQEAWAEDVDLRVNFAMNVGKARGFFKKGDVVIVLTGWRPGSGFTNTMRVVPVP

MCF7 = experiment: cells; conditions: Homo sapiens, MCF7, 48 h
Description: Cytotoxicity against human MCF7 cells assessed as inhibition of cell growth incubated for 48 hrs by MTT assay

Pyruvate kinase PKM [6] = molecular target: T1, Pyruvate kinase PKM; experiment: Binding affinity to PKM2 (unknown origin) assessed as protein destabilization by differential scanning fluorimetry; conditions: dose 2.5-10 µM
Target sequence in this assay (P14618 2-531 limits assumed): as above

Pyruvate kinase PKM [7] = molecular target: T1, Pyruvate kinase PKM; experiment: Inhibition of PKM2 (unknown origin) assessed as decrease in dimer population by analytical size-exclusion chromatography; conditions: dose 5.0 µM
Target sequence in this assay (P14618 2-531 limits assumed): as above

Pyruvate kinase PKM [8] = molecular target: T1, Pyruvate kinase PKM; experiment: Inhibition of PKM2 (unknown origin) assessed as increase in tetramer ratio by analytical size-exclusion chromatography; conditions: dose 5.0 µM
Target sequence in this assay (P14618 2-531 limits assumed): as above

Pyruvate kinase PKM [9] = molecular target: T1, Pyruvate kinase PKM; experiment: Inhibition of PKM2 (unknown origin) assessed as decrease in dimer population at 5 uM by analytical size-exclusion chromatography relative to control
Target sequence in this assay (P14618 2-531 limits assumed): as above

Pyruvate kinase PKM [10] = molecular target: T1, Pyruvate kinase PKM; experiment: Inhibition of PKM2 (unknown origin) assessed as decrease in dimer population at 5 uM in presence of FBP by analytical size-exclusion chromatography relative to control
Target sequence in this assay (P14618 2-531 limits assumed): as above

Pyruvate kinase PKM [11] = molecular target: T1, Pyruvate kinase PKM; experiment: Inhibition of PKM2 (unknown origin) assessed as decrease in monomer population at 5 uM by analytical size-exclusion chromatography relative to control

Pyruvate kinase PKLR (Homo sapiens), sequence (P30613 whole entry, looked up): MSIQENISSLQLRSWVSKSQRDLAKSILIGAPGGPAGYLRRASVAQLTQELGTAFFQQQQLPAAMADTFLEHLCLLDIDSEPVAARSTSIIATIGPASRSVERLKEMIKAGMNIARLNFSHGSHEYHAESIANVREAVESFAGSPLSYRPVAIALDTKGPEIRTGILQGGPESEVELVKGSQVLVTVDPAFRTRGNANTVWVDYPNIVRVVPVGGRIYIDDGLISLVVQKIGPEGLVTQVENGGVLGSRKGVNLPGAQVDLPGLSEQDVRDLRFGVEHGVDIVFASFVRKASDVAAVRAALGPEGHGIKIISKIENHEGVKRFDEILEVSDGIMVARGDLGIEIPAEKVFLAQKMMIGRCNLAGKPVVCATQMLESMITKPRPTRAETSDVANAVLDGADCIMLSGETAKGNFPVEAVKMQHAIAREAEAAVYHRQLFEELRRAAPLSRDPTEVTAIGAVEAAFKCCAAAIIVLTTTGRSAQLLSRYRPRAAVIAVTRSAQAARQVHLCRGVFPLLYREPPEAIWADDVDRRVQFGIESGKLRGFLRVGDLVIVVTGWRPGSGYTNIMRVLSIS

Row | Structure (SMILES) | pIC50 (A549) | pIC50 (Jurkat) | IC50 at 48 h [1] [µM] | inhibition (Oryctolagus cuniculus) [%] | pIC50 (HCC1937) | pIC50 (Pyruvate kinase PKM [2]) | pIC50 (4T1; read-out: IC50) | pIC50 (Pyruvate kinase PKM [3]) | pIC50 (MDA-MB-231) | inhibition [4] [%] | inhibition (Pyruvate kinase PKM [5]) [%] | pIC50 (MCF7) | Activity (Pyruvate kinase PKM [6]) | inhibition (Pyruvate kinase PKM [7]) | inhibition (Pyruvate kinase PKM [8]) | inhibition (Pyruvate kinase PKM [9]) [%] | inhibition (Pyruvate kinase PKM [10]) [%] | inhibition (Pyruvate kinase PKM [11]) [%] | pIC50 (4T1)
1 | NC(=O)c1cc[n+]2[se]c(C3(O)CCC(F)(F)CC3)c(Br)c2c1 | 5.50 | 5.84 | 1.41 | 13 | 6.22 | 6.27 | 5.90 | 6.44 | 5.87 | 40 | 26 | 6.00 |  |  |  |  |  |  | 
2 | COC(=O)c1cc[n+]2[se]c(C3(O)CCC(F)(F)CC3)c(Br)c2c1 | 5.94 | 6.32 | 1.06 | 2 | 6.62 | 6.24 | 5.83 | 6.20 | 6.32 | 29 | 11 | 6.55 |  |  |  |  |  |  | 
3 | O=c1cc(-c2ccc(O)cc2)oc2cc(O)cc(O)c12 [APIGENIN] |  |  |  |  |  | < 4.70 |  | < 4.70 |  |  |  |  |  |  |  |  |  |  | 
4 | COC(=O)c1ccc2c(Br)c(C3(O)CCCCC3)[se][n+]2c1 | 5.88 | 6.60 | 0.89 | 10 | 6.51 | 6.52 | 6.15 | 6.26 | 6.37 | 39 | 16 | 6.06 |  |  |  |  |  |  | 
5 | CCCCCCCCCCCCCC(C)(O)c1[se][n+]2ccc(C(N)=O)cc2c1Br (stereo not drawn) | 5.43 | 5.70 | 1.91 | 9 | 6.04 |  | 5.36 | 6.05 | 5.62 | 29 | 23 | 6.00 |  |  |  |  |  |  | 
6 | NC(=O)c1cc[n+]2[se]c(C3(O)C4CC5CC(C4)CC3C5)c(Br)c2c1 (stereo not drawn) | 5.66 | 6.04 | 0.91 | 6 | 6.13 |  | 6.25 | 6.00 | 6.19 | 11 | 21 | 6.21 |  |  |  |  |  |  | 
7 | COC(=O)c1cc2c(Br)c(C3(O)CCCCC3)[se][n+]2cc1F | 5.53 | 5.94 | 1.68 | 7 | 5.92 |  | 5.63 | 6.05 | 5.86 | 15 | 29 | 5.97 |  |  |  |  |  |  | 
8 | COC(=O)c1cc[n+]2[se]c(C3([O-])CCCC3)c(Br)c2c1 | 5.06 | 6.32 | 0.77 | 6 | 6.39 | 6.29 | 5.69 | 6.42 | 5.78 | 42 | 20 | 6.44 |  |  |  |  |  |  | 
9 | NC(=O)c1cc[n+]2[se]c(C3(O)CCCCC3)c(Br)c2c1 | 5.55 | 6.00 | 1.41 | 6 | 6.22 | 6.24 | 5.85 | 6.38 | 5.94 | 37 | 15 | 5.65 | Dose-Dependent Effect | Dose-Dependent Effect | Dose-Dependent Effect | 69.1 | 43.2 | 38 | 
10 | OC1(c2[se][n+]3ccccc3c2Br)CCCCC1 |  |  |  |  |  | 5.56 |  | 5.53 |  |  |  |  |  |  |  |  |  |  | 
11 | COC(=O)c1cc(C)[n+]2[se]c(C3(O)CCCCC3)c(Br)c2c1 | 5.95 | 6.35 | 0.9 | 7 | 6.47 |  | 6.02 | 5.87 | 6.43 | 28 | 10 | 6.52 |  |  |  |  |  |  | 
12 | COC(=O)c1cc[n+]2[se]c(C3([O-])CCC3)c(Br)c2c1 | 5.04 | 5.49 | 2.97 | 7 | 5.52 | 6.22 | < 5.00 | 6.07 | 5.19 | 20 | 26 | 5.55 |  |  |  |  |  |  | 
13 | O=C(O)c1ccc2c(Br)c(C3(O)CCCCC3)[se][n+]2c1 |  | 5.49 | 3.55 |  | 5.41 |  |  | < 6.00 |  |  |  | < 5.00 |  |  |  |  |  |  | 
14 | CCCCCCCCCCCCCC(C)(O)c1[se][n+]2ccc(C(=O)OC)cc2c1Br (stereo not drawn) |  | 5.47 | 3.63 |  | 5.61 |  |  | < 6.00 |  |  |  | 5.42 |  |  |  |  |  |  | 
15 | COc1cccc2c1C(=O)c1c(O)c3c(c(O)c1C2=O)C[C@@](O)(C(=O)CO)C[C@@H]3O[C@H]1C[C@H](N)[C@H](O)[C@H](C)O1 [DOXORUBICIN] | 6.64 | 6.49 | 3.9 |  | 5.97 |  |  |  | 6.39 |  |  | 6.33 |  |  |  |  |  |  | 7.19
16 | O=C(O)c1cc[n+]2[se]c(C3(O)CCCCC3)c(Br)c2c1 | 5.15 | 5.18 | 7.82 | 9 | 5.24 |  | 5.17 | 5.97 | 5.21 | 5 | 4 | < 5.00 |  |  |  |  |  |  | 
17 | COC(=O)c1cc[n+]2[se]c(C3(O)C4CC5CC(C4)CC3C5)c(Br)c2c1 (stereo not drawn) |  | 5.21 | 4.76 |  | 5.54 |  |  | < 6.00 |  |  |  | 5.16 |  |  |  |  |  |  | 
18 | [2H]C([2H])([2H])OC(=O)c1cc[n+]2[se]c(C3(O)CCCCC3)c(Br)c2c1.[Cl-] | 5.92 | 6.31 | 0.64 |  | 6.27 | 6.21 | 5.95 | 6.32 | 6.40 |  |  | 6.42 |  |  |  |  |  |  | 
19 | NC(=O)c1cccc2c(Br)c(C3(O)CCCCC3)[se][n+]12 |  | 5.73 | 2.63 |  | 5.88 |  |  | < 6.00 |  |  |  | 5.41 |  |  |  |  |  |  | 
20 | NC(=O)c1ccc2c(Br)c(C3(O)CCCCC3)[se][n+]2c1 |  | 6.22 | 1.27 |  | 5.82 |  |  | < 6.00 |  |  |  | 5.64 |  |  |  |  |  |  | 
